According to article PMC6579470, “A low-potential terminal oxidase associated with the iron-only nitrogenase from the nitrogen-fixing bacterium Azotobacter vinelandii” (The Journal of Biological Chemistry, 2019):

How the values were obtained:
[1] = biological target: T1, Anf3 (Azotobacter vinelandii, UniProt C1DK98); experiment: X-ray crystal structure of the complex; assay type: binding; details: protein isolated with bound FAD; FAD stacks on heme; crystals at 16 °C, 25.5% PEG 4000, 170 mM ammonium sulfate
T1 construct: gene Avin_49040; full-length anf3, N-terminal His6 tag cut off with thrombin; E. coli KRX; intertwined homodimer; cofactors contact both monomers
T1 sequence (C1DK98 entry or part of it): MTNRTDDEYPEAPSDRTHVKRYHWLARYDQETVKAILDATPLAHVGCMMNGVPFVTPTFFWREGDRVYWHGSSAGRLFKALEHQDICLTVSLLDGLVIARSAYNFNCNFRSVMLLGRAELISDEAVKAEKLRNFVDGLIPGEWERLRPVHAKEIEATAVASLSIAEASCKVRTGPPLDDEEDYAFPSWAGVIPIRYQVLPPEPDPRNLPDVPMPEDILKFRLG

[2] = biological target: Anf3 from Azotobacter vinelandii (Azotobacter vinelandii); experiment: crystal structure; hanging-drop vapor diffusion, 25.5% PEG 4000, 170 mM ammonium sulfate, 16 °C; space group P2(1); the asymmetric unit contains a dimer

Row | stoichiometry N [2] | Molecule | X-ray crystal structure of the complex [1]
1 |  | Cc1cc2nc3c(=O)[nH]c(=O)nc-3n(C[C@H](O)[C@H](O)[C@H](O)COP(=O)(O)OP(=O)(O)OC[C@H]3O[C@@H](n4cnc5c(N)ncnc54)[C@H](O)[C@@H]3O)c2cc1C [FAD] | Each monomer core is a split-barrel flavin-binding domain that binds an FAD
2 | 2 | Anf3 from Azotobacter vinelandii (enzyme) | 
